Laboratory results taken from US20260176253A1 (priority 2021, published 2026).

What was measured:
[1] = biological target: 5-HT2Cedited (accession number AAF35842.1) (Homo sapiens, UniProt P28335, I156V/I160V/N158S); experiment: biochemical; type: binding
[2] = biological target: human recombinant 5-HT2Cedited receptor (Homo sapiens, UniProt P28335, I156V/I160V/N158S); experiment: cell-based
human recombinant 5-HT2Cedited receptor, sequence (P28335 33-458 I156V/N158S/I160V limits assumed): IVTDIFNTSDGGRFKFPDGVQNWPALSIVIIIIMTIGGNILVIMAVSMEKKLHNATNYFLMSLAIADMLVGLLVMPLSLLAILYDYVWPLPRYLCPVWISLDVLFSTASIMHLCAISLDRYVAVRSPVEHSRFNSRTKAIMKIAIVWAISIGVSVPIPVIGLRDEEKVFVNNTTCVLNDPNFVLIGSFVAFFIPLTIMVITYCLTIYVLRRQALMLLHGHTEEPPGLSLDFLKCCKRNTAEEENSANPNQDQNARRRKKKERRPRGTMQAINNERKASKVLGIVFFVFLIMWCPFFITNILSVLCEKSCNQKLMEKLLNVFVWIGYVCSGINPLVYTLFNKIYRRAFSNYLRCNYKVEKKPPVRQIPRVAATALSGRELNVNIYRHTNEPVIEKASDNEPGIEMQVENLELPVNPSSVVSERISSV

5-HT2Cedited (accession number AAF35842.1), sequence (P28335 whole entry I156V/N158S/I160V, looked up): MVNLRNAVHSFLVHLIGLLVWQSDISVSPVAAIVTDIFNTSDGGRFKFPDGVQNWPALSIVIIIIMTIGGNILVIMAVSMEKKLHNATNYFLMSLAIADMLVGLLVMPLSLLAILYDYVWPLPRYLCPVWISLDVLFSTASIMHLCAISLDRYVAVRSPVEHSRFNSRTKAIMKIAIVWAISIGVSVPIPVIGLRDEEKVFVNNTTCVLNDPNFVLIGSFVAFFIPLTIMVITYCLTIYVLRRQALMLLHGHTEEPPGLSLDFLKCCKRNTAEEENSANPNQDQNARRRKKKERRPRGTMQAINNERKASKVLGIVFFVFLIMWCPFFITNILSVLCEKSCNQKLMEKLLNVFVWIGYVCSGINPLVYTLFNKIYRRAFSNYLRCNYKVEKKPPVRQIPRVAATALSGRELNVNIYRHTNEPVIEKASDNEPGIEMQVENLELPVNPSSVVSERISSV

SMILES | IC50 [1] | EC50 [2]
COc1cccc2[nH]c3c(c12)C[C@H]1CCCN1CC3 [Compound 26, (R)-11-methoxy-1,2,3,5,6,7,12,12a-octahydropyrrolo[1′,2′:1,7]azepino[4,5-b]indole] | 10 to 100 nM | 10 to 100 nM
c1ccc2c3c([nH]c2c1)CCN1CCC[C@@H]1C3 [Compound 22, (R)-1,2,3,5,6,7,12,12a-octahydropyrrolo[1′,2′:1,7]azepino[4,5-b]indole] | 101 to 1000 nM | 101 to 1000 nM
COc1cccc2[nH]c3c(c12)C[C@@H]1CCCN1CC3 [Compound 27, (S)-11-methoxy-1,2,3,5,6,7,12,12a-octahydropyrrolo[1′,2′:1,7]azepino[4,5-b]indole] | 101 to 1000 nM | 101 to 1000 nM
FC(F)(F)c1ccc2c3c([nH]c2c1)CC1CCCN1CC3 (stereo not drawn) [Compound 12, 9-(trifluoromethyl)-1,2,3,5,6,11,12,12a-octahydropyrrolo[1′,2′:1,2]azepino[4,5-b]indole] | 1000 to 10000 nM | > 10000 nM
FC(F)(F)c1cccc2[nH]c3c(c12)CC1CCCN1CC3 (stereo not drawn) [Compound 28, 11-(trifluoromethyl)-1,2,3,5,6,7,12,12a-octahydropyrrolo[1′,2′:1,7]azepino[4,5-b]indole] | 10 to 100 nM | 101 to 1000 nM
Cn1c2c(c3ccccc31)CCN1CCCC1C2 (stereo not drawn) [Compound 3, 11-methyl-1,2,3,5,6,11,12,12a-octahydropyrrolo[1′,2′:1,2]azepino[4,5-b]indole] | 101 to 1000 nM | 101 to 1000 nM
c1ccc2c3c([nH]c2c1)C[C@H]1CCCN1CC3 [Compound 20, (R)-1,2,3,5,6,11,12,12a-octahydropyrrolo[1′,2′:1,2]azepino[4,5-b]indole] | 101 to 1000 nM | 10 to 100 nM
FC(F)(F)Oc1ccc2c3c([nH]c2c1)CC1CCCN1CC3 (stereo not drawn) [Compound 13, 9-(trifluoromethoxy)-1,2,3,5,6,11,12,12a-octahydropyrrolo[1′,2′;1,2]azepino[4,5-b]indole] | 1000 to 10000 nM | > 10000 nM
COc1ccc2c3c([nH]c2c1)C[C@H]1CCCN1CC3 [Compound 18, (R)-9-methoxy-1,2,3,5,6,11,12,12a-octahydropyrrolo[1′,2′:1,2]azepino[4,5-b]indole] | 1000 to 10000 nM | > 10000 nM
COc1ccc2c3c([nH]c2c1)CCN1CCC[C@@H]1C3 [Compound 24, (R)-9-methoxy-1,2,3,5,6,7,12,12a-octahydropyrrolo[1′,2′:1,7]azepino[4,5-b]indole] | 1000 to 10000 nM | 1000 to 10000 nM
c1ccc2c3c([nH]c2c1)CC1CCCN1CC3 (stereo not drawn) [Compound 4, 1,2,3,5,6,11,12,12a-octahydropyrrolo[1′,2′;1,2]azepino[4,5-b]indole] | 101 to 1000 nM | 101 to 1000 nM
c1ccc2c3c([nH]c2c1)CCN1CCC[C@H]1C3 [Compound 23, (S)-1,2,3,5,6,7,12,12a-octahydropyrrolo[1′,2′:1,7]azepino[4,5-b]indole] | 101 to 1000 nM | 101 to 1000 nM
COc1ccc2c3c([nH]c2c1)CC1CCCN1CC3 (stereo not drawn) [Compound 2, 9-methoxy-1,2,3,5,6,11,12,12a-octahydropyrrolo[1′,2′:1,2]azepino[4,5-b]indole] | 1000 to 10000 nM | 1000 to 10000 nM
c1ccc2c3c([nH]c2c1)C[C@@H]1CCCN1CC3 [Compound 19, (S)-1,2,3,5,6,11,12,12a-octahydropyrrolo[1′,2′:1,2]azepino[4,5-b]indole] | 101 to 1000 nM | 101 to 1000 nM
Cn1c2c(c3ccccc31)CC1CCCN1CC2 (stereo not drawn) [Compound 6, 7-methyl-1,2,3,5,6,7,12,12a-octahydropyrrolo[1′,2′:1,7]azepino[4,5-b]indole] | 101 to 1000 nM | 101 to 1000 nM
COc1cccc2[nH]c3c(c12)CC1CCCN1CC3 (stereo not drawn) [Compound 5, 11-methoxy-1,2,3,5,6,7,12,12a-octahydropyrrolo[1′,2′:1,7]azepino[4,5-b]indole] | 101 to 1000 nM | 1000 to 10000 nM
COc1ccc2c3c([nH]c2c1)CCN1CCC[C@H]1C3 [Compound 25, (S)-9-methoxy-1,2,3,5,6,7,12,12a-octahydropyrrolo[1′,2′:1,7]azepino[4,5-b]indole] | 1000 to 10000 nM | 1000 to 10000 nM
c1ccc2c3c([nH]c2c1)CCN1CCCC1C3 (stereo not drawn) [Compound 7, 1,2,3,5,6,7,12,12a-octahydropyrrolo[1′,2′:1,7]azepino[4,5-b]indole] | 101 to 1000 nM | 101 to 1000 nM
COc1ccc2c3c([nH]c2c1)CCN1CCCC1C3 (stereo not drawn) [Compound 1, 9-methoxy-1,2,3,5,6,7,12,12a-octahydropyrrolo[1′,2′:1,7]azepino[4,5-b]indole] | 1000 to 10000 nM | > 10000 nM
COc1ccc2c3c([nH]c2c1)C[C@@H]1CCCN1CC3 [Compound 17, (S)-9-methoxy-1,2,3,5,6,11,12,12a-octahydropyrrolo[1′,2′:1,2]azepino[4,5-b]indole] | 1000 to 10000 nM | > 10000 nM
FC(F)(F)c1cccc2[nH]c3c(c12)CCN1CCCC1C3 (stereo not drawn) [Compound 21, 7-(trifluoromethyl)-1,2,3,5,6,11,12,12a-octahydropyrrolo[1′,2′:1,2]azepino[4,5-b]indole] | 101 to 1000 nM | 101 to 1000 nM
